Where a name gives a salt, the structure may show the parent alone.
Target: Proton Pump (H^+/K^+-ATPase) (Sus scrofa, UniProt P19156)
Assay: Inhibitory effects on proton pump (H^+/K^+-ATPase) activity
Assay type: biochemical
Details: hog gastric vesicles; K^+ stimulated H^+/K^+-ATPase activity; 30 minutes at 37° C.

Chain of Proton Pump (H^+/K^+-ATPase) (P19156 2-1034 limits assumed): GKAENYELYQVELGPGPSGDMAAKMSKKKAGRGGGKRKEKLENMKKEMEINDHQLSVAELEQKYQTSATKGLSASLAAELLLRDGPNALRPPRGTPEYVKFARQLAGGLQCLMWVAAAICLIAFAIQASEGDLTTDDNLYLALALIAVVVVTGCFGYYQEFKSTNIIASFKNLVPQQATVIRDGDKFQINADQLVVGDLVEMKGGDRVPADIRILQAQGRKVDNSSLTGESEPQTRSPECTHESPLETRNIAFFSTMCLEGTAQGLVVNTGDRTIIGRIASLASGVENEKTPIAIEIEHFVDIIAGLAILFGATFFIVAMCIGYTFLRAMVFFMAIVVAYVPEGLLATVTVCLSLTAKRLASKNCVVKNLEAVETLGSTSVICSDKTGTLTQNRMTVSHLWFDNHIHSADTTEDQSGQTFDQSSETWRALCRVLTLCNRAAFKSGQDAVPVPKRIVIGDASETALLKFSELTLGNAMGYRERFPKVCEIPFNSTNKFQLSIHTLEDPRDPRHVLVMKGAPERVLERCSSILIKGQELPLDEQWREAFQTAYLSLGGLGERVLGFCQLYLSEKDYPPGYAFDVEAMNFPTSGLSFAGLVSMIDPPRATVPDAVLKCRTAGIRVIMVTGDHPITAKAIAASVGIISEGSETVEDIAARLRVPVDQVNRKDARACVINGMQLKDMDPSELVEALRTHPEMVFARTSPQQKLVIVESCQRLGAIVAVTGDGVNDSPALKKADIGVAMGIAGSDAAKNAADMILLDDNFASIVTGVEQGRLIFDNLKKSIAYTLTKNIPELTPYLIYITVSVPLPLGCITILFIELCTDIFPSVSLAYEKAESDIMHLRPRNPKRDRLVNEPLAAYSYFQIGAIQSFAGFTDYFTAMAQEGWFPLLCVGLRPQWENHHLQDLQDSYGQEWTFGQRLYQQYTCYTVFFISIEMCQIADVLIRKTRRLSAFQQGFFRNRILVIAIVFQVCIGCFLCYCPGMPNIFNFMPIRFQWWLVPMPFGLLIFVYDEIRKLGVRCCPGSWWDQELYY
Chain of Proton Pump (H^+/K^+-ATPase) (P18434 whole entry partner): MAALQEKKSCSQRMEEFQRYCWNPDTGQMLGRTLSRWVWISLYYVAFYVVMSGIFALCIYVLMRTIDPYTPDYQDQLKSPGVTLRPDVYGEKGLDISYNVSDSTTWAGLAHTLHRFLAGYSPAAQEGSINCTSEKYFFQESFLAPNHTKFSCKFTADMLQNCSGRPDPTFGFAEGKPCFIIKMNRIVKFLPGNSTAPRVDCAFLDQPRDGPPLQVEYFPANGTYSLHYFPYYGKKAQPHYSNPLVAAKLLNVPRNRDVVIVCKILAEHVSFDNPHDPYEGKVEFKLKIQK

`COCCn1c(C)c(C)c2cc(C(=O)O)nc(N3CCc4ccccc4C3)c21` [Example 734, 7-(3,4-dihydro-1H-isoquinolin-2-yl)-1-(2-methoxyethyl)-2,3-dimethyl-1H-pyrrolo[2,3-c]pyridin-5-carboxylic acid] and `CCn1c(C)c(C)c2cc(C(=O)O)nc(N3CCc4ccccc4C3)c21` [Example 738, 7-(3,4-dihydro-1H-isoquinolin-2-yl)-1-ethyl-2,3-dimethyl-1H-pyrrolo[2,3-c]pyridin-5-carboxylic acid] are within 1.5-fold of each other in IC50: 366 nM for the first, 331 nM for the second.

Going from `Cc1c(C)n(Cc2cccc(Cl)c2)c2c(N3CCc4ccccc4C3)nc(C(=O)O)cc12` [Example 735, 1-(3-chlorobenzyl)-7-(3,4-dihydro-1H-isoquinolin-2-yl)-2,3-dimethyl-1H-pyrrolo[2,3-c]pyridin-5-carboxylic acid] to `Cc1c(C)n(Cc2cccc(Cl)c2)c2c(N3CCc4ccccc4C3)nc(C(N)=O)cc12` [Example 750, 1-(3-chlorobenzyl)-7-(3,4-dihydro-1H-isoquinolin-2-yl)-2,3-dimethyl-1H-pyrrolo[2,3-c]pyridin-5-carboxamide], the IC50 rises from 54 nM to 298 nM (5.5-fold). The first is the more potent here.

First: Cc1c(C)n(Cc2cccc(F)c2)c2c(N3CCc4ccccc4C3)nc(C(=O)O)cc12 [Example 737, 7-(3,4-dihydro-1H-isoquinolin-2-yl)-1-(3-fluorobenzyl)-2,3-dimethyl-1H-pyrrolo[2,3-c]pyridin-5-carboxylic acid]
Second: Cc1c(C)n(Cc2ccccc2)c2c(N3CCc4ccccc4C3)nc(C(=O)O)cc12 [Example 744, 1-benzyl-7-(3,4-dihydro-1H-isoquinolin-2-yl)-2,3-dimethyl-1H-pyrrolo[2,3-c]pyridin-5-carboxylate sodium]
The IC50 of the first is 5.2-fold lower: 25 nM for the first, 130 nM for the second. The first is the more potent here.

Going from `Cc1c(C)n(CC2CC2)c2c(N3CCc4ccccc4C3)nc(C(=O)O)cc12` [Example 740, 1-cyclopropylmethyl-7-(3,4-dihydro-1H-isoquinolin-2-yl)-2,3-dimethyl-1H-pyrrolo[2,3-c]pyridin-5-carboxylic acid] to `Cc1c(C)n(CC2CC2)c2c(N3CCc4ccccc4C3)nc(C(N)=O)cc12` [Example 754, 1-cyclopropylmethyl-7-(3,4-dihydro-1H-isoquinolin-2-yl)-2,3-dimethyl-1H-pyrrolo[2,3-c]pyridin-5-carboxamide], the IC50 rises from 267 nM to 4050 nM (15-fold).

Going from `COC(=O)c1cc2c(C)c(C)n(Cc3ccccc3)c2c(N2CCc3ccccc3C2)n1` [Example 743, 1-benzyl-7-(3,4-dihydro-1H-isoquinolin-2-yl)-2,3-dimethyl-1H-pyrrolo[2,3-c]pyridin-5-carboxylic acid methyl ester] to `Cc1c(C)n(Cc2ccccc2)c2c(N3CCc4ccccc4C3)nc(C(N)=O)cc12` [Example 745, 1-benzyl-7-(3,4-dihydro-1H-isoquinolin-2-yl)-2,3-dimethyl-1H-pyrrolo[2,3-c]pyridin-5-carboxamide], the IC50 falls from 231 nM to 112 nM (2.1-fold). The second is the more potent here.

Compared with `C#CCn1c(C)c(C)c2cc(C(N)=O)nc(N3CCc4ccccc4C3)c21` [Example 749, 7-(3,4-dihydro-1H-isoquinolin-2-yl)-2,3-dimethyl-1-(prop-2-ynyl)-1H-pyrrolo[2,3-c]pyridin-5-carboxamide], `C=CCn1c(C)c(C)c2cc(C(=O)NC)nc(N3CCc4ccccc4C3)c21` [Example 757, 1-allyl-7-(3,4-dihydro-1H-isoquinolin-2-yl)-2,3-dimethyl-N-methyl-1H-pyrrolo[2,3-c]pyridin-5-carboxamide hydrochloride] is 20-fold higher in IC50: 1.5 nM for the first, 30 nM for the second.

`C=CCn1c(C)c(C)c2cc(C(=O)NCc3cccc(Cl)c3)nc(N3CCc4ccccc4C3)c21` [Example 758, 1-allyl-7-(3,4-dihydro-1H-isoquinolin-2-yl)-2,3-dimethyl-N-(3-chlorobenzyl)-1H-pyrrolo[2,3-c]pyridin-5-carboxamide hydrochloride] and `C=CCn1c(C)c(C)c2cc(C(=O)NCc3ccc4c(c3)OCO4)nc(N3CCc4ccccc4C3)c21` [Example 760, 1-allyl-7-(3,4-dihydro-1H-isoquinolin-2-yl)-2,3-dimethyl-N-(benzo[1,3]dioxol-5-ylmethyl)-1H-pyrrolo[2,3-c]pyridin-5-carboxamide hydrochloride] are within 1.5-fold of each other in IC50: 316 nM for the first, 373 nM for the second.

Source: US7662832B2, “Pyrrolo[2,3-c]pyridine derivatives and processes for the preparation thereof” (priority 2004, dated 2010)
